From patent publication US9593118B2, “Xanthine-substituted alkynyl carbamates/reverse carbamates as A2B antagonists” (Lewis and Clark Pharmaceuticals, Inc., priority 2015, dated 2017)

Biological target: T1, A2B adenosine receptor (Homo sapiens, UniProt P29275)
T1 construct: An endogenous A2B adenosine receptor coupled to cyclic AMP generation in human embryonic kidney (HEK-293) cells; endogenous in cells
T1 sequence (P29275 1-332): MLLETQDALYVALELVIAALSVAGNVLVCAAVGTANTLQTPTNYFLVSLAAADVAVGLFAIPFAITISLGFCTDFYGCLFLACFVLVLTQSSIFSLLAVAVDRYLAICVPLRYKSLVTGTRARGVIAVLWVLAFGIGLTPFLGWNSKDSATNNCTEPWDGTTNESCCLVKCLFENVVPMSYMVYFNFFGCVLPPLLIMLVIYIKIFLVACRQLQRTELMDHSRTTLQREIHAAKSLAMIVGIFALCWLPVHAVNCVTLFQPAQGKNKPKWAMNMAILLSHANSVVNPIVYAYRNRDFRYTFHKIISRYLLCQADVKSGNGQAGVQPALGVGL
Assay: A2B antagonist cAMP assay (inhibition of the NECA response, HTRF)
Type: cell-based
Conditions: test compound at 1×10^−7M; percent inhibition of the control response to 1 μM NECA (cAMP)
Protocol: Representative compounds of the present invention have been tested for their activity as A2B antagonists and shown to be active. These values were obtained by using the following methodology.
The cells are suspended in HBSS buffer (Invitrogen) complemented with 20 mM HEPES (pH 7.4), then distributed in microplates at a density of 5×10^3 cells/well and preincubated for 5 min at room temperature in the presence of HBSS (basal control), the test compound or the reference antagonist. Thereafter, the reference agonist NECA is added at a final concentration of 1 μM. […] Following 10 min incubation at 37° C., the cells are lysed and the fluorescence acceptor (D2-labeled cAMP) and fluorescence donor (anti-cAMP antibody labeled with europium cryptate) are added. After 60 min at room temperature, the fluorescence transfer is measured at λex=337 nm and λem=620 and 665 nm using a microplate reader (Rubystar, BMG). The cAMP concentration is determined by dividing the signal measured at 665 nm by that measured at 620 nm (ratio). The results are expressed as a percent inhibition of the control response to 1 μM NECA. The standard reference antagonist is XAC, which is tested in each experiment at several concentrations to generate a concentration-response curve from which its IC50 value is calculated.
Reference: Cooper, J., Hill, S. J., and Alexander, S. P. H. (1997), An endogenous A2B adenosine receptor coupled to cyclic AMP generation in human embryonic kidney (HEK-293) cells, Brit. J. Pharmacol., 122: 546.

SMILES	inhibition at 0.1 µM
CN(CC#Cc1nc2c([nH]1)c(=O)n(C1CC1)c(=O)n2C1CC1)C(=O)Oc1ccc(F)cc1 [Example 1, 1,3-Dicyclopropyl-8-(3-(methyl((4-fluorophenoxy)carbonyl)amino)prop-1-yn-1-yl)xanthine]	> 20%
CCCn1c(=O)n(C2CC2)c(=O)c2[nH]c(C#CCN(C)C(=O)Oc3ccc(F)cc3)nc21 [Example 2, 1-Cyclopropyl-3-propyl-8-(3-(methyl((4-fluorophenoxy)carbonyl)amino)prop-1-yn-1-yl)xanthine]	> 20%
CN(CC#Cc1nc2c([nH]1)c(=O)n(C1CC1)c(=O)n2C1CC1)C(=O)Oc1ccccc1 [Example 3, 1,3-Dicyclopropyl-8-(3-(methyl(phenoxycarbonyl)amino)prop-1-yn-1-yl)xanthine]	> 5%
CN(CC#Cc1nc2c([nH]1)c(=O)n(C1CC1)c(=O)n2C1CC1)C(=O)Oc1cccc(C(F)(F)F)c1 [Example 4, 1,3-Dicyclopropyl-8-(3-(methyl((3-(trifluoromethyl)phenoxy)carbonyl)-amino)prop-1-yn-1-yl)xanthine]	> 5%
COc1ccccc1OC(=O)N(C)CC#Cc1nc2c([nH]1)c(=O)n(C1CC1)c(=O)n2C1CC1 [Example 5, 1,3-Dicyclopropyl-8-(3-(methyl((2-methoxyphenoxy)carbonyl)amino)prop-1-yn-1-yl)xanthine]	> 5%
CN(CC#Cc1nc2c([nH]1)c(=O)n(C1CC1)c(=O)n2C1CC1)C(=O)Oc1ccccc1Cl [Example 6, 8-(3-(((2-Chlorophenoxy)carbonyl)(methyl)amino)prop-1-yn-1-yl)-1,3-dicyclopropylxanthine]	> 5%
CN(C(=O)OCC#Cc1nc2c([nH]1)c(=O)n(C1CC1)c(=O)n2C1CC1)c1ccccc1 [Example 7, 1,3-Dicyclopropyl-8-(3-((methyl(phenyl)carbamoyl)oxy)prop-1-yn-1-yl)xanthine]	> 5%
CN(C(=O)OCC#Cc1nc2c([nH]1)c(=O)n(C1CC1)c(=O)n2C1CC1)c1ccc(Cl)cc1 [Example 8, 8-(3-(((4-Chlorophenyl)(methyl)carbamoyl)oxy)prop-1-yn-1-yl)-1,3-dicyclopropylxanthine]	> 20%
